Measured values from patent US7943646B2, “Benzamidine derivative, process for the preparation thereof and pharmaceutical composition comprising same” (Dong Wha Pharmaceutical Co., Ltd., priority 2006, dated 2011).

The compounds below were run on osteoclast differentiation (assay: Inhibitory effect on osteoclast differentiation, co-culture of bone marrow cells and osteoblast, TRAP staining). Details: Mus musculus, Osteoclast, 168 h, read-out: inhibitory effect on osteoclast differentiation(%).
Assay type: cell-based, mouse
Description: The effect of the benzamidine derivative of the present invention on osteoclast formation and differentiation process was evaluated via co-culture with an osteoblast.
Tibia was aseptically ectomized from male 6 to 8-week-old ddY mice to harvest bone marrow cells by using a syringe (21G, Korea Green Cross). The bone marrow cells were suspended in 5 mL of an α-MEM medium (Gibco BRL Co., added with sodium bicarbonate (2.0 g/L), streptomycin (100 mg/L) and penicillin ([…]), filtered and then sterilized). The harvested cells were centrifuged at 600×g for 5 mins to collect the whole quantity. To remove the red blood cells in the bone marrow cells, 3 mL of Tris HCl (0.83% NH4Cl, pH 7.5) was added and well mixed. After centrifuging above cells, the numbers of the eukaryotic cells in the harvested bone marrow cells were counted and then immediately used for a co-culture system.
The progenitor bone and the parietal bone were aseptically ectomized from 1 to 2-day-old neonate ICR mice, washed with a phosphate butter solution (PBS) and treated with a mixed enzyme solution (of 0.2% collagenase and 0.1% dispase) sequentially (10, 10, 10, 20, 20 and 20 min), and then 3 to 6 groups of the cells which comprise lot of cells having the characteristics of the osteoblast were intensively collected and washed with a medium (a serum-free α-MEM). The washed cells were cultured in the α-MEM medium containing 10% FBS for 2 to 3 days. After subculturing, the collected cells were used for this experiment, and diluted to a concentration of 1×10^6 cells/mL for storage at −70[…].
The benzamidine derivative of the present invention was dissolved in a sterile distilled water or ethanol to dilute to a desired concentration. The final volume of the sample added to the cell culture medium was set at a ratio of 1:1000.
The bone marrow cells prepared in the above 1-1 and the osteoblast were co-cultured for osteoclast differentiation. Both the bone marrow cells (25,000 cells/cm^2) and the osteoblast (10,000 cells/cm^2) were plated in a 96-well plate using α-MEM medium containing FBS, and then cultured with the samples to be tested for 7 days. Differentiation factors, such as dexamethasone (10^−7 M) and vitamin D3 (10^−8 M), were also co-added to the medium from the first day of cultivation. The medium was changed with a fresh media containing a mixture of the samples and the differentiation factors every 2 to 3 days.
TRAP was used as a marker to measure the matured osteoclast in consideration of its characteristics showing a positive reaction to a TRAP staining solution. The TRAP staining solution was prepared in such the manner that 5 mg of naphtol AS-MS phosphate (sigma N-4875) as a substrate, and 25 mg of a coloring agent (Fast Red Violet LB salt) were dissolved in N,N-dimethylformamide (about 0.5 mL). 50 ml of a 0.1 N NaHCO3 buffer solution containing 50 mM tartaric acid (pH 5.0) was added thereto, and the mixture was stored at a refrigerator prior to use as a staining solution.
After culturing the cells for 7 days, the medium was removed from the wells, the cells were once washed with PBS, and then fixed with PBS containing 10% formalin for 2 to 5 min. The cells were fixed again in a mixed solution of ethanol and acetone (1/1) for about 1 min, and dried off. The cells were further treated by the TRAP staining solution for 15 mins and washed with water and dried off. The osteoclasts with 3 or more nuclei showing a TRAP-positive reaction were counted under a microscopic examination. Each of tests was confirmed over at least three times. The inhibitory effect on osteoclast differentiation of each experimental group, relative to negative controls, was expressed as a percentage (%).

In order of falling inhibition at 1 µM:
1. Cc1nc(-c2ccc(OCCCCCOc3ccc(C(=N)NO)cc3)cc2)c(CCN2CC(C)OC(C)C2)s1 (stereo not shown) [Example 14, N-hydroxy-4-[5-(4-{5-[2-(2,6-dimethyl-morpholin-4-yl)-ethyl]-2-methyl-thiazol-4-yl}-phenoxy)-pentyloxy]-benzamidine]  100%
2. CC(C)c1nc(-c2ccc(OCCCCCOc3ccc(C(=N)NO)cc3)cc2)c(CCNCCCn2ccnc2)s1 [Example 31, N-hydroxy-4-[5-(4-{5-[2-(3-imidazol-1-yl-propylamino)-ethyl]-2-isopropyl-thiazol-4-yl}-phenoxy)-pentyloxy]-benzamidine]  97%
3. COCCN(CCOC)CCc1sc(C)nc1-c1ccc(OCCCCCOc2ccc(C(=N)NO)cc2)cc1 [Example 20, N-hydroxy-4-{5-[4-(5-{2-[bis-(2-methoxy-ethyl)-amino]-ethyl}-2-methyl-thiazol-4-yl)-phenoxy]-pentyloxy}-benzamidine]  94%
4. Cc1nc(-c2ccc(OCCCCCOc3ccc(C(=N)NO)cc3)cc2)c(CCn2ccnc2)s1 [Example 9, N-hydroxy-4-(5-{4-[5-(2-imidazol-1-yl-ethyl)-2-methyl-thiazol-4-yl]-phenoxy}-pentyloxy)-benzamidine]  91.7%
5. CN1CCN(CCc2sc(-c3cccnc3)nc2-c2ccc(OCCCCCOc3ccc(C(=N)NO)cc3)cc2)CC1 [Example 24, N-hydroxy-4-[5-(4-{5-[2-(4-methyl-piperazin-1-yl)-ethyl]-2-pyridine-3-yl-thiazol-4-yl}-phenoxy)-pentyloxy]-benzamidine]  86%
6. CC(C)c1nc(-c2ccc(OCCCCCOc3ccc(C(=N)NO)cc3)cc2)c(CCn2ccnc2)s1 [Example 29, N-hydroxy-4-(5-{4-[5-(2-imidazol-1-yl-ethyl)-2-isopropyl-thiazol-4-yl]-phenoxy}-pentyloxy)-benzamidine]  85%
7. Cc1nc(-c2ccc(OCCCCCOc3ccc(C(=N)NO)cc3)cc2)c(CCNCCN2CCOCC2)s1 [Example 4, N-hydroxy-4-[5-(4-{2-methyl-5-[2-(2-morpholin-4-yl-ethylamino)-ethyl]-thiazol-4-yl}-phenoxy)-pentyloxy]-benzamidine]  72.8%
8. CCN(CC)CCc1sc(C)nc1-c1ccc(OCCCCCOc2ccc(C(=N)NO)cc2)cc1 [Example 11, N-hydroxy-4-(5-{4-[5-(2-diethylamino-ethyl)-2-methyl-thiazol-4-yl]-phenoxy}-pentyloxy)-benzamidine]  70%
9. N=C(NO)c1ccc(OCCCCCOc2ccc(-c3nc(-c4cccnc4)sc3CCN3CCSCC3)cc2)cc1 [Example 25, N-hydroxy-4-(5-{4-[2-pyridine-3-yl-5-(2-thiomorpholin-4-yl-ethyl)-thiazol-4-yl]-phenoxy}-pentyloxy)-benzamidine]  65%
10. Cc1nc(-c2ccc(OCCCCCOc3ccc(C(=N)NO)cc3)cc2)c(CCNC(C)C)s1 [Example 6, N-hydroxy-4-(5-{4-[5-(2-isopropylamino-ethyl)-2-methyl-thiazol-4-yl]-phenoxy}-pentyloxy)-benzamidine]  59%
11. Cc1nc(-c2ccc(OCCCCCOc3ccc(C(=N)NO)cc3)cc2)c(CCN(CCO)CCO)s1 [Example 12, N-hydroxy-4-{5-[4-(5-{2-[bis-(2-hydroxy-ethyl)-amino]-ethyl)-2-methyl-thiazol-4-yl)-phenoxy]-pentyloxy}-benzamidine]  56%
12. N=C(NO)c1ccc(OCCCCCOc2ccc(-c3nc(N)sc3CCN3CCOCC3)cc2)cc1 [Example 16, N-hydroxy-4-(5-{4-[2-amino-5-(2-morpholin-4-yl-ethyl)-thiazol-4-yl]-phenoxy}-pentyloxy)-benzamidine]  51%
13. Cc1nc(-c2ccc(OCCCCCOc3ccc(C(=N)NO)cc3)cc2)c(CCNCCN(C)C)s1 [Example 17, N-hydroxy-4-[5-(4-{5-[2-(2-dimethylamino-ethylamino)-ethyl]-2-methyl-thiazol-4-yl}-phenoxy)-pentyloxy]-benzamidine]  40%
14. N=C(NO)c1ccc(OCCCCCOc2ccc(-c3nc(-c4cccnc4)sc3CCn3ccnc3)cc2)cc1 [Example 26, N-hydroxy-4-(5-{4-[5-(2-imidazol-1-yl-ethyl)-2-pyridine-3-yl-thiazol-4-yl]-phenoxy}-pentyloxy)-benzamidine]  24%

Same assay, conditions: Mus musculus, Osteoclast, 168 h; 1 μm; 7 days co-culture; TRAP-positive osteoclasts with 3 or more nuclei, relative to negative controls; read-out: inhibitory effect on osteoclast differentiation(%)

In order of rising inhibition at 1 µM:
1. Cc1nc(-c2ccc(OCCCCCOc3ccc(C(=N)NO)cc3)cc2)c(CCN(C(C)C)C(C)C)s1 [Example 13, N-hydroxy-4-(5-{4-[5-(2-diisopropylamino-ethyl)-2-methyl-thiazol-4-yl]-phenoxy}-pentyloxy)-benzamidine]  43%
2. Cc1nc(-c2ccc(OCCCCCOc3ccc(C(=N)NO)cc3)cc2)c(CCNCCCOC(C)C)s1 [Example 7, N-hydroxy-4-[5-(4-{5-[2-(3-isopropoxy-propylamino)-ethyl]-2-methyl-thiazol-4-yl}-phenoxy)-pentyloxy]-benzamidine]  48%
3. Cc1nc(-c2ccc(OCCCCCOc3ccc(C(=N)NO)cc3)cc2)c(CCNC2CCCCC2)s1 [Example 10, N-hydroxy-4-(5-{4-[5-(2-cyclohexylamino-ethyl)-2-methyl-thiazol-4-yl]-phenoxy}-pentyloxy)-benzamidine]  55%
4. Cc1nc(-c2ccc(OCCCCCOc3ccc(C(=N)NO)cc3)cc2)c(CCNC(C)(C)C)s1 [Example 21, N-hydroxy-4-(5-{4-[5-(2-tert-butylamino-ethyl)-2-methyl-thiazol-4-yl]-phenoxy}-pentyloxy)-benzamidine]  58%
5. Cc1nc(-c2ccc(OCCCCCOc3ccc(C(=N)NO)cc3)cc2)c(CCNCC(C)C)s1 [Example 22, N-hydroxy-4-(5-{4-[5-(2-isobutylamino-ethyl)-2-methyl-thiazol-4-yl]-phenoxy}-pentyloxy)-benzamidine]  61%
6. CC(C)c1nc(-c2ccc(OCCCCCOc3ccc(C(=N)NO)cc3)cc2)c(CCNCCN2CCOCC2)s1 [Example 30, N-hydroxy-4-[5-(4-{2-isopropyl-5-[2-(2-morpholin-4-yl-ethylamino)-ethyl]-thiazol-4-yl}-phenoxy)-pentyloxy]-benzamidine]  78%
7. CC(C)c1nc(-c2ccc(OCCCCCOc3ccc(C(=N)NO)cc3)cc2)c(CCN2CCN(C)CC2)s1 [Example 28, N-hydroxy-4-[5-(4-{2-isopropyl-5-[2-(4-methyl-piperazin-1-yl)-ethyl]-thiazol-4-yl}-phenoxy)-pentyloxy]-benzamidine]  90%
8. Cc1nc(-c2ccc(OCCCCCOc3ccc(C(=N)NO)cc3)cc2)c(CCN2CCCCC2)s1 [Example 3, N-hydroxy-4-(5-{4-[2-methyl-5-(2-piperidin-1-yl-ethyl)-thiazol-4-yl]-phenoxy}-pentyloxy)-benzamidine]  90.7%
9. N=C(NO)c1ccc(OCCCCCOc2ccc(-c3nc(-c4cccnc4)sc3CCN3CCOCC3)cc2)cc1 [Example 23, N-hydroxy-4-(5-{4-[5-(2-morpholin-4-yl-ethyl)-2-pyridine-3-yl-thiazol-4-yl]-phenoxy}-pentyloxy)-benzamidine]  91%
10. Cc1nc(-c2ccc(OCCCCCOc3ccc(C(=N)NO)cc3)cc2)c(CCNCCCn2ccnc2)s1 [Example 5, N-hydroxy-4-[5-(4-{5-[2-(3-imidazol-1-yl-propylamino)-ethyl]-2-methyl-thiazol-4-yl}-phenoxy)-pentyloxy]-benzamidine]  93.5%
11. Cc1nc(-c2ccc(OCCCCCOc3ccc(C(=N)NO)cc3)cc2)c(CCN2CCSCC2)s1 [Example 15, N-hydroxy-4-(5-{4-[2-methyl-5-(2-thiomorpholin-4-yl-ethyl)-thiazol-4-yl]-phenoxy}-pentyloxy)-benzamidine]  99%
